Assay [1] deals with Plasmodium falciparum chloroquine-sensitive clone: Sierra Leone-D6 (SL-D6). The experiment in a line: in vitro anti-malarial activity, semiautomated microdilution technique, chloroquine-sensitive clone. Type of assay: cell-based. To be noted: clone S6-D6; for I-QHS: index of activity (IC50) relative to Qinghaosu under the same conditions; for I-CHLQ: index of activity (IC50) relative to chloroquine under the same conditions. The source says: (§1) Determination of anti-malarial activity of the compounds was effected according to the methods published by R E Desjardins et al and W K Milhous et al (Desjardins, R.E., C.J. Cranfield, D.E. Haynes, and J.D. Chulay. 1979. Quantitative assessment of anitmalarial activity in vitro by a semiautomated microdilution technique. Antimicrob. Agents Chemother. 16:710-718. Milhous, W.K., N.F. Weatherley, J.H. Bowdre, and R.E. Desjardins. 1985. In vitro activities of and mechanisms of resistance to antifol antimalarials. Antimicrob. Agents Chemother. 27:525-530). For such determinations, the following clones of Plasmodium falciparum were used: chloroquine-resistant clone: Indochina-W2 (IndCh-W2) chloroquine-sensitive clone: Sierra Leone-D6 (SL-D6) The activity measured was then compared as indexes under the same conditions to the activity of Qinghaosu (I-QHS) and chloroquine (I-CHLQ), respectively. The indexes (I) provide a measure of the activity of the 1,2,4-trioxane derivatives tested in relation to the activity of the known anti-malarial substances.
On the technique in general: Broth dilution looks for growth in wells or tubes with falling amounts of substance.

Assay [2] relates to Plasmodium falciparum chloroquine-resistant clone: Indochina-W2 (IndCh-W2). Nature of the assay: in vitro anti-malarial activity, semiautomated microdilution technique, chloroquine-resistant clone. The format is cell-based. To be noted: for I-QHS: index of activity (IC50) relative to Qinghaosu under the same conditions; for I-CHLQ: index of activity (IC50) relative to chloroquine under the same conditions.
Description: as §1

Assay [3] relates to mefloquine-resistant clones of Plasmodium falciparum (MEF-W2). The experiment in a line: in vitro anti-malarial activity, mefloquine-resistant clones. Type of assay: cell-based. Particulars: index of activity (IC50) relative to Qinghaosu; clone MEF-W2.
Description: as §1
Certain derivatives of 1,2,4-trioxane listed below were tested against mefloquine-resistant clones of Plasmodium falciparum (MEF-W2), according to the method previously cited.

Assay [4] relates to mixed lymphocyte reaction. The experiment in a line: immunomodulatory activity (in vitro mitogenic assay; mixed lymphocyte reaction). The format is cell-based. Here is the method: Several of the compounds mentioned in Examples 1 to 17 were also tested for immunomodulatory activity (in vitro mitogenic assay; mixed lymphocyte reaction).
Assay [5] deals with chloroquine-resistant strains of P. falciparum. Particulars: cited from earlier work.

As for `O=C1CCC2(CC1)OO[C@]1(c3ccccc3)CC(c3ccccc3)=C[C@@H]1O2` (racemic) [Compound 17], the I-QHS came to 1.06 in assay [1] and 2.1 in assay [2].
As to `C1=C(c2ccccc2)C[C@@]2(c3ccccc3)OOC3(CCC4(CC3)OCCO4)O[C@@H]12` (racemic) [Compound 20], the results for the I-QHS in assay [1] and in assay [2] were 0.39 and 0.67, respectively.
`CC1(C)OO[C@]2(c3ccccc3)CC(c3ccccc3)=C[C@@H]2O1` [Compound 1]: the I-QHS in assay [1] is 0.18; in assay [2], 0.13; in assay [3], 0.15. In addition, the I-CHLQ came to 0.20 in assay [1] and 5.7 in assay [2].
The corresponding values for `CC1(C)OO[C@]2(c3ccccc3)C=C(c3ccccc3)[C@@H](O)[C@@H]2O1` [Compound 2] are 0.25, 0.12, 0.10, 0.27 and 5.4.
For the molecule `C1=C(c2ccccc2)C[C@@]2(c3ccccc3)OOC3(CCCC3)O[C@@H]12` [Compound 4], the I-QHS in assay [1] was 0.79; in assay [2] it was 2.1. Besides, the I-CHLQ stood at 0.82 in assay [1] and 12.2 in assay [2].
The corresponding values for `C1=C(c2ccccc2)C[C@@]2(c3ccccc3)OOC3(CCCCC3)O[C@@H]12` [Compound 5] are 0.20, 0.26, 0.20 and 1.5.
Take `CC1(C)OO[C@]2(c3ccccc3)C=C(c3ccccc3)[C@@H](OC(=O)c3ccccc3F)[C@@H]2O1` [Compound 7]: in assay [1], the I-QHS is listed as 0.05 and the I-CHLQ came to 0.06. In assay [2], this molecule showed an I-QHS of 0.04 and an I-CHLQ of 1.6.
In assay [1], `CC(C)OC(=O)O[C@@H]1C(c2ccccc2)=C[C@@]2(c3ccccc3)OOC(C)(C)O[C@@H]12` [Compound 8] had an I-QHS of 0.16 and an I-CHLQ of 0.18. Also, in assay [2], the I-QHS amounted to 0.10 and the I-CHLQ came to 4.2.
For the molecule `CC1(C)OO[C@]2(c3ccccc3)C=C(c3ccccc3)C(=O)[C@@H]2O1` [Compound 9], in assay [1], the I-QHS amounted to 0.20 and the I-CHLQ is 0.21. For the same molecule, in assay [2], the I-QHS is reported as 0.08 and the I-CHLQ is reported as 3.5.
As for `CC(C)CC(=O)O[C@@H]1C(c2ccccc2)=C[C@@]2(c3ccccc3)OOC(C)(C)O[C@@H]12` [Compound 10], in assay [1], the I-QHS came out at 0.09 and the I-CHLQ is listed as 0.10. Also, in assay [2], the I-QHS amounted to 0.04 and the I-CHLQ is 1.7.
In assay [1], `O[C@@H]1C(c2ccccc2)=C[C@@]2(c3ccccc3)OOC3(CCCC3)O[C@@H]12` [Compound 11] had an I-QHS of 1.85 and an I-CHLQ of 1.16. In assay [2], this molecule came in with an I-QHS of 4.7 and an I-CHLQ of 73.8.
In assay [1], `C1=C(c2ccccc2)C[C@@]2(c3ccccc3)OOC3(CCOCC3)O[C@@H]12` [Compound 12] yielded an I-QHS of 1.10 and an I-CHLQ of 0.67. In assay [2], this molecule showed an I-QHS of 18.7 and an I-CHLQ of 295.3. The immunomodulatory activity entry in assay [4] is “most important activity”.
Regarding `OO[C@@H]1C(c2ccccc2)=C[C@@]2(c3ccccc3)OOC3(CCCCC3)O[C@@H]12` [Compound 13], the I-QHS is reported as 1.47 in assay [1] and 2.2 in assay [2]. Further, the I-CHLQ came out at 0.93 in assay [1] and 33.9 in assay [2].
With `O=C1C(c2ccccc2)=C[C@@]2(c3ccccc3)OOC3(CCCCC3)O[C@@H]12` [Compound 15], the I-QHS in assay [1] is listed as 1.93; in assay [2], 3.5.
For `O[C@@H]1C(c2ccccc2)=C[C@@]2(c3ccccc3)OOC3(CCCCC3)O[C@@H]12` [Compound 16], the I-QHS was 0.49 in assay [1] and 1.6 in assay [2].
The corresponding values for `CCOC(=O)CCCC1(C)OO[C@]2(c3ccccc3)CC(c3ccccc3)=C[C@@H]2O1` (stereo partly drawn) [Compound 18] are 0.28 and 0.09.
In the case of `CCC1(C)OO[C@]2(c3ccccc3)CC(c3ccccc3)=C[C@@H]2O1` (stereo partly drawn) [Compound 21], the I-QHS was found to be 0.36 in assay [1] and 0.075 in assay [2].
Consider `C[C@@H]1CC[C@H]2[C@@H](C)C(=O)O[C@@H]3O[C@@]4(C)CC[C@@H]1[C@]32OO4` [Qinghaosu], for which the “activity against chloroquine-resistant strains of P. falciparum” value in assay [5] is reported as “remarkably active”.

The values are drawn from patent EP0286316A1, “1,2,4-Trioxane Derivatives” (Jefford, Charles W., priority 1987, dated 1988).
